The target of assay [1] is DNA (cytosine-5)-methyltransferase 3B (Homo sapiens, UniProt Q9UBC3). Put plainly: Inhibition of human recombinant DNMT3B expressed in baculovirus-insect cell system by scintillation counting.
Assay [2] has as its target DNA (cytosine-5)-methyltransferase 1 (Homo sapiens, UniProt P26358). Put plainly: Inhibition of human recombinant DNMT1 expressed in baculovirus-insect cell system by scintillation counting.

In ChEMBL document CHEMBL1157722, “Novel and selective DNA methyltransferase inhibitors: Docking-based virtual screening and experimental evaluation” (Bioorg Med Chem, 2010) one finds IC50 data, which are given here for 3 compounds.

What is called IC50 is the point on the concentration scale where inhibition reaches its midpoint.

DNA (cytosine-5)-methyltransferase 1, sequence (P26358 whole entry): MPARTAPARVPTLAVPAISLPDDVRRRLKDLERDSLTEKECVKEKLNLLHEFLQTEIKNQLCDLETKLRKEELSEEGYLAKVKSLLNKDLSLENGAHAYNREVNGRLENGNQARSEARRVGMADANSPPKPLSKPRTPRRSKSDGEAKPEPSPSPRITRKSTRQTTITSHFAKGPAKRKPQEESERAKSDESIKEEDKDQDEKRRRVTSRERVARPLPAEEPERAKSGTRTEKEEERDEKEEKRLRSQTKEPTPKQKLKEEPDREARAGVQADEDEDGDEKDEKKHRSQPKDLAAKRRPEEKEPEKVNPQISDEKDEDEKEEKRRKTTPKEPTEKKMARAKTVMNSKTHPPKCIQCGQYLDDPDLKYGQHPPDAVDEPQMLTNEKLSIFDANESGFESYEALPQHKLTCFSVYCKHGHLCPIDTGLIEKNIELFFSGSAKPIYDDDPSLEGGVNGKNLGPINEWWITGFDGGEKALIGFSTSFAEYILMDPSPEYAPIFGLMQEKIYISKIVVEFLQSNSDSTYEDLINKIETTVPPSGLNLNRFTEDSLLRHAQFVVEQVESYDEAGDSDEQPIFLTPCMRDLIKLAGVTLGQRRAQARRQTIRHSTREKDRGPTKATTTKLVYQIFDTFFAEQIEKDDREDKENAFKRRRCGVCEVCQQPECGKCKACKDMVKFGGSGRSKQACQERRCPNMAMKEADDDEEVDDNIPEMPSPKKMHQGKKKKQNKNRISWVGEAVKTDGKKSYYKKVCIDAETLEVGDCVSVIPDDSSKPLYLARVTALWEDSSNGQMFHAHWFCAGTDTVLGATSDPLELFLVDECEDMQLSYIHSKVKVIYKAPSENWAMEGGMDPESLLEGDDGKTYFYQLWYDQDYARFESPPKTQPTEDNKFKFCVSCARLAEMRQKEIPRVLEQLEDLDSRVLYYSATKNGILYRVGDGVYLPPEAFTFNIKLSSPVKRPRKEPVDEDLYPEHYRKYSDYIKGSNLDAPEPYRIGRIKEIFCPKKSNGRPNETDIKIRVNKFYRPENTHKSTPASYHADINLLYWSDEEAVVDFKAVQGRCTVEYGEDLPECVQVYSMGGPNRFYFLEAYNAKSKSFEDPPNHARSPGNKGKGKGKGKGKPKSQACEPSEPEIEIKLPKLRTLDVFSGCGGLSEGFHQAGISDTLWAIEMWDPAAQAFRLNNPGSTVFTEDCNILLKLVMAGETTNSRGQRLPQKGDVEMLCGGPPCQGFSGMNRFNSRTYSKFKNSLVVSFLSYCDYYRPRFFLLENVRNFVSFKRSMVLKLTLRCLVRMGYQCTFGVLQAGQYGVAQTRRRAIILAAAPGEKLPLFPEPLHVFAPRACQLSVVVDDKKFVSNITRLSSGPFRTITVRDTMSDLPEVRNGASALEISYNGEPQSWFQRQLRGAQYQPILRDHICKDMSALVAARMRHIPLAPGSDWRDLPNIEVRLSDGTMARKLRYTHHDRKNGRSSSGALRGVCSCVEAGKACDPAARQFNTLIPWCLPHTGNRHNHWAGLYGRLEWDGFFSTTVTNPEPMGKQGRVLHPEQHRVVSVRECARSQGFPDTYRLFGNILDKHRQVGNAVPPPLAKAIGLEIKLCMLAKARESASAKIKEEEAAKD

In the case of `O=C(O)COc1ccc(C(=O)c2cc(Br)ccc2OCC(=O)O)cc1`, the half-inhibitory concentration (IC50) entry in assay [1] is “Not Active”; in assay [2] (read-out: IC50), 212 µM. For `Nc1ncnc2c1ncn2[C@@H]1O[C@H](CSCC[C@H](N)C(=O)O)[C@@H](O)[C@H]1O` [S-ADENOSYLHOMOCYSTEINE], the IC50 in assay [1] (read-out: IC50) worked out at 250 nM. As to `O=C(O)CCCC(C(=O)O)N1C(=O)c2ccccc2C1=O` (stereo not given), the IC50 entry in assay [1] and in assay [2] was “Not Active” in each case.
